In ChEMBL document CHEMBL1201862, “PubChem BioAssay data set” (2004):
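Tested at 5 concentrations; 48 h exposure; 96-well plates; endpoints linearly interpolated, else capped at highest concentration. Here, GI50 denotes the concentration required for 50% inhibition of growth.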 The source made the active and inactive calls. Cut-off read from the data, not from the text of the source: active = GI50 up to about 1.1 µM and inactive = higher.

Key:
Assay in all cases: NCI-60 cell line screen, 48 h
COLO 205 = test system: COLO 205
OVCAR-3 = test system: OVCAR-3
HCT-116 = test system: HCT-116
SK-MEL-28 = test system: SK-MEL-28
OVCAR-5 = test system: OVCAR-5
HL-60 = test system: HL-60
SK-MEL-2 = test system: SK-MEL-2
DMS-114 = test system: DMS-114
CCRF-CEM = test system: CCRF-CEM
HCT-15 = test system: HCT-15
SN12C = test system: SN12C
UACC-62 = test system: UACC-62
EKVX = test system: EKVX
OVCAR-4 = test system: OVCAR-4
SNB-19 = test system: SNB-19
Malme-3M = test system: Malme-3M
DLD-1 = test system: DLD-1
SW-620 = test system: SW-620
MOLT-4 = test system: MOLT-4
NCI-H23 = test system: NCI-H23
SK-MEL-5 = test system: SK-MEL-5
LXFL 529 = test system: LXFL 529
M14 = test system: M14
ACHN = test system: ACHN
SF-539 = test system: SF-539
UO-31 = test system: UO-31
HOP-18 = test system: HOP-18
KM-20L2 = test system: KM-20L2
K562 = test system: K562
U-251 = test system: U-251
UACC-257 = test system: UACC-257
IGROV-1 = test system: IGROV-1
DMS-273 = test system: DMS-273
A549 = test system: A549
SF-268 = test system: SF-268
SK-OV-3 = test system: SK-OV-3
HT-29 = test system: HT-29
NCI-H460 = test system: NCI-H460
OVCAR-8 = test system: OVCAR-8
CAKI-1 = test system: CAKI-1
SF-295 = test system: SF-295
A498 = test system: A498
SNB-75 = test system: SNB-75
NCI-H522 = test system: NCI-H522
HOP-92 = test system: HOP-92
HOP-62 = test system: HOP-62
M19-MEL = test system: M19-MEL
786-0 = test system: 786-0
SNB-78 = test system: SNB-78
KM12 = test system: KM12
TK-10 = test system: TK-10
RPMI-8226 = test system: RPMI-8226
XF498 = test system: XF498
LOX IMVI = test system: LOX IMVI

`CCCN1CN(C(C(=O)N[C@@H]2C(=O)N3C(C(=O)O)=C(C)CSC23)c2ccc(O)cc2)CSC1=S` (some centres undefined) was tested, and the GI50 (COLO 205) was 55.6 µM (inactive), the GI50 (OVCAR-3) was 45.5 µM (inactive) and the GI50 (HCT-116) was > 100 µM (inactive). For the same molecule, the GI50 (SK-MEL-28) was > 100 µM (inactive), the GI50 (OVCAR-5) was > 100 µM (inactive) and the GI50 (HL-60) was 65.9 µM (inactive). For the same molecule, the GI50 (SK-MEL-2) was > 100 µM (inactive), the GI50 (DMS-114) was 52.4 µM (inactive) and the GI50 (CCRF-CEM) was 66.8 µM (inactive). For the same molecule, the GI50 (HCT-15) was over 100 µM, the GI50 (SN12C) was > 100 µM (inactive) and the GI50 (UACC-62) was > 100 µM (inactive). For the same molecule, the GI50 (EKVX) was > 100 µM (inactive), the GI50 (OVCAR-4) was > 100 µM (inactive) and the GI50 (SNB-19) was > 100 µM (inactive). For the same molecule, the GI50 (Malme-3M) was > 100 µM (inactive), the GI50 (DLD-1) was > 100 µM (inactive) and the GI50 (SW-620) was 14.2 µM (inactive). For the same molecule, the GI50 (MOLT-4) was 57.3 µM (inactive), the GI50 (NCI-H23) was > 100 µM (inactive) and the GI50 (SK-MEL-5) was > 100 µM (inactive). For the same molecule, the GI50 (LXFL 529) was > 100 µM (inactive), the GI50 (M14) was > 100 µM (inactive) and the GI50 (ACHN) was > 100 µM (inactive). For the same molecule, the GI50 (SF-539) was > 100 µM (inactive), the GI50 (UO-31) was > 100 µM (inactive) and the GI50 (HOP-18) was > 100 µM (inactive). For the same molecule, the GI50 (KM-20L2) was > 100 µM (inactive), the GI50 (K562) was 80 µM (inactive) and the GI50 (U-251) was 97.5 µM (inactive). For the same molecule, the GI50 (UACC-257) was > 100 µM (inactive), the GI50 (IGROV-1) was > 100 µM (inactive) and the GI50 (DMS-273) was > 100 µM (inactive). For the same molecule, the GI50 (A549) was > 100 µM (inactive), the GI50 (SF-268) was > 100 µM (inactive) and the GI50 (SK-OV-3) was > 100 µM (inactive). For the same molecule, the GI50 (HT-29) was > 100 µM (inactive), the GI50 (NCI-H460) was 63.1 µM (inactive) and the GI50 (OVCAR-8) was > 100 µM (inactive). For the same molecule, the GI50 (CAKI-1) was > 100 µM (inactive), the GI50 (SF-295) was > 100 µM (inactive) and the GI50 (A498) was > 100 µM (inactive). The GI50 (SNB-75) was > 100 µM (inactive), the GI50 (NCI-H522) was 23.6 µM (inactive) and the GI50 (HOP-92) was > 100 µM (inactive). For the same molecule, the GI50 (HOP-62) was > 100 µM (inactive), the GI50 (M19-MEL) was > 100 µM (inactive) and the GI50 (786-0) was > 100 µM (inactive). The GI50 (SNB-78) was > 100 µM (inactive), the GI50 (KM12) was > 100 µM (inactive) and the GI50 (TK-10) was > 100 µM (inactive). The GI50 (RPMI-8226) was 72.1 µM (inactive), the GI50 (XF498) was > 100 µM (inactive) and the GI50 (LOX IMVI) was 76.6 µM (inactive).
